Data on 19 molecules can be found in patent US20200390899A1, “AMINOBENZAZEPINE COMPOUNDS, IMMUNOCONJUGATES, AND USES THEREOF” (BOLT BIOTHERAPEUTICS, INC., priority 2019, published 2020).

Like-named read-outs stand apart in the source and are kept apart here. Bounds are passed on as bounds.

For one assay, the target named is T1, human TLR7 (Homo sapiens, UniProt Q9NYK1).
T1 construct: host or cells: HEK293 reporter cells
T1 sequence (Q9NYK1 27-1049): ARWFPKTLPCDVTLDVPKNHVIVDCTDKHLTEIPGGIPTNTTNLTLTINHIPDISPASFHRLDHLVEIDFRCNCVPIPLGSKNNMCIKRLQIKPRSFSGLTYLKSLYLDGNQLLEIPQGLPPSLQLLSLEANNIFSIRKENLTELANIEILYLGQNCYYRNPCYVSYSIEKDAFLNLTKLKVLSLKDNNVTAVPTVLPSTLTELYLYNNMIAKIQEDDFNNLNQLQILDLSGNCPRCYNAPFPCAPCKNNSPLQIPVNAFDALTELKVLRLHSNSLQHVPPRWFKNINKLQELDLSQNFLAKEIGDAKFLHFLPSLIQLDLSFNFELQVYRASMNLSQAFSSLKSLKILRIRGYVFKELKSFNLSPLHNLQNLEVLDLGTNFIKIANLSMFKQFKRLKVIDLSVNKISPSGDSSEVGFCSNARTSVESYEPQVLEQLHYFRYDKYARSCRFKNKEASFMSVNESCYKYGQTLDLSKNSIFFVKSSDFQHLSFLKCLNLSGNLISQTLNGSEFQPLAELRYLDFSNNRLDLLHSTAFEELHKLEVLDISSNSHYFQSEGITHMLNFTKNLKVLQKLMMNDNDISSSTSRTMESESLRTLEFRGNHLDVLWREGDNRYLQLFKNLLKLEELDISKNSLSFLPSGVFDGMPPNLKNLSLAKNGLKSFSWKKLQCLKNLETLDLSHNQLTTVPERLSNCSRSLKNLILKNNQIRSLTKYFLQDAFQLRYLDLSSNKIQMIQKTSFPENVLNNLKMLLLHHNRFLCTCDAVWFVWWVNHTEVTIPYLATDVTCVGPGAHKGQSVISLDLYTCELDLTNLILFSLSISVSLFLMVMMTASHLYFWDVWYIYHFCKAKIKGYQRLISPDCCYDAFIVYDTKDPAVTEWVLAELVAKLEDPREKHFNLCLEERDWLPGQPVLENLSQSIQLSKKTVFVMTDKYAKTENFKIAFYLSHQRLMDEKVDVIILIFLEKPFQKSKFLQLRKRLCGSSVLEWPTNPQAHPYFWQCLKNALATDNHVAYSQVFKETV
Briefly: HEK293 NFKB reporter assay, human TLR7. As to conditions: HEK293 reporter cells expressing human TLR7, read-out: HEK293 hTLR7 EC50. The class given is cell-based. The protocol: (§1) Each compound was synthesized and purified by the methods in the Examples provided herein, characterized by mass spectrometry, and shown to have the mass indicated. Activity against HEK293 NFKB reporter cells expressing human TLR7 or human TLR8 was measured according to Example 68.
(§2) HEK293 reporter cells expressing human TLR7 or human TLR8 were purchased from Invivogen and vendor protocols were followed for cellular propagation and experimentation. Briefly, cells were grown to 80-85% confluence at 5% CO2 in DMEM supplemented with 10% FBS, Zeocin, and Blasticidin. Cells were then seeded in 96-well flat plates at 4×10^4cells/well with substrate containing HEK detection medium and immunostimulatory molecules. Activity was measured using a plate reader at 620-655 nm wavelength.
(A reporter such as luciferase makes a cellular process visible.)

The target in another assay is T2, human TLR8 (Homo sapiens, UniProt Q9NR97).
T2 construct: host or cells: HEK293 reporter cells
T2 sequence (Q9NR97 27-1041): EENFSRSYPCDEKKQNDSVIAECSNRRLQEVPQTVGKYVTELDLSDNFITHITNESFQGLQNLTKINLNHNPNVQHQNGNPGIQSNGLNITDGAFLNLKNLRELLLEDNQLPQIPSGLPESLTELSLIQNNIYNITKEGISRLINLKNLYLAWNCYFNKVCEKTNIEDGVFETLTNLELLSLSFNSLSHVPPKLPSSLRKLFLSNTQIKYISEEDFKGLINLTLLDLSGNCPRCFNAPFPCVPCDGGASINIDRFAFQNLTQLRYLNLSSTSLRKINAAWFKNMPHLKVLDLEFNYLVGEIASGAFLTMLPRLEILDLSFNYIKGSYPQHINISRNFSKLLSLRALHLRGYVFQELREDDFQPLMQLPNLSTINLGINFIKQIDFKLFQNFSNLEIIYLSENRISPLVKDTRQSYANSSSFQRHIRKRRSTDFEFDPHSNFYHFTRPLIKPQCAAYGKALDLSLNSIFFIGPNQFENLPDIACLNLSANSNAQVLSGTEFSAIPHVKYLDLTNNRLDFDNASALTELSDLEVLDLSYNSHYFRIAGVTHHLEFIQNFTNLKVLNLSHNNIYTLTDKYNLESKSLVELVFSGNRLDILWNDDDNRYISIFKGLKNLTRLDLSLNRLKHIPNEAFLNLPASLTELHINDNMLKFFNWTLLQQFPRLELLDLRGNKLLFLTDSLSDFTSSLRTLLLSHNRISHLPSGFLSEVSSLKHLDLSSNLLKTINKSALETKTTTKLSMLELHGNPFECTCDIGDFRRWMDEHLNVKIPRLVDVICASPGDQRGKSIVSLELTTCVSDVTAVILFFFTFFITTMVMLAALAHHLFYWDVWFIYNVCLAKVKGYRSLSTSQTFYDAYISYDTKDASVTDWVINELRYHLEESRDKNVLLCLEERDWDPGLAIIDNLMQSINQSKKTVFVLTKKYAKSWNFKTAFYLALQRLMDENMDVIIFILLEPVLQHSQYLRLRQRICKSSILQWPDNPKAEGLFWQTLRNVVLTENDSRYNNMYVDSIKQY
Description: HEK293 NFKB reporter assay, human TLR8. The class given is cell-based. Conditions: HEK293 reporter cells expressing human TLR8, read-out: HEK293 hTLR8 EC50. As to the method: as §1, §2

In the case of `CCCN(Cc1ccc(CN2CCNCC2)cc1)C(=O)C1=Cc2ccc(-c3cccc(S(=O)(=O)N4CC(CO)C4)c3)cc2N=C(N)C1` [Bz-32, 2-amino-8-[3-[3-(hydroxymethyl)azetidin-1-yl]sulfonylphenyl]-N-[[4-(piperazin-1-ylmethyl)phenyl]methyl]-N-propyl-3H-1-benzazepine-4-carboxamide], the EC50 on human TLR7 (Table 1b) and at human TLR8 (Table 1b) was more than 9 µM each time.
Consider `CCON(CCC(F)(F)F)C(=O)C1=Cc2ccc(-c3cccc(S(=O)(=O)N4CC(CO)C4)c3)cc2N=C(N)C1` [Bz-66], for which the EC50 at human TLR7 (Table 1c) came out at 4.61 µM; on human TLR8 (Table 1c) it was 0.026 µM.
In the same order, the values of `CCCN(CCCNC(=O)c1ccc(OCC)cc1)C(=O)C1=Cc2ccc(C(=O)Nc3ccccc3)cc2N=C(N)C1` [Bz-55] are not below 9 µM and 1.04 µM.
Turning to `CCCN(CC#CCNC(=O)OC(C)(C)C)C(=O)C1=Cc2ccc(-c3cccc(S(=O)(=O)N4CC(CN(C)C)C4)c3)cc2N=C(N)C1` [Bz-28, tert-butyl N-[4-[[2-amino-8-[3-[3-[(dimethylamino)methyl]azetidin-1-yl]sulfonylphenyl]-3H-1-benzazepine-4-carbonyl]-propyl-amino]but-2-ynyl]carbamate], the EC50 amounted to 4.25 µM on human TLR7 (Table 1b) and 0.0428 µM on human TLR8 (Table 1b).
Turning to `CCCN(CCC)C(=O)C1=Cc2ccc(-c3ccc(CN)c(S(=O)(=O)N4CC(CO)C4)c3)cc2N=C(N)C1` [Bz-2], the EC50 was more than 9 µM on human TLR7 (Table 1a) and 9.76 µM at human TLR8 (Table 1a).
For the molecule `CCCN(CCC)C(=O)C1=Cc2ccc(C#CCCCNC(=O)OC(C)(C)C)cc2N=C(N)C1` [Bz-67], the EC50 on human TLR7 (Table 1c) worked out at 3.93 µM; at human TLR8 (Table 1c), 2.05 µM.
`CCCN(OCC)C(=O)C1=Cc2ccc(-c3cccc(S(=O)(=O)N4CC(CO)C4)c3)cc2N=C(N)C1` [Bz-29, 2-amino-N-ethoxy-8-[3-[3-(hydroxylmethyl)azetidin-1-yl]sulfonylphenyl]-N-propyl-3H-1-benzazepine-4-carboxamide]: the results for the EC50 on human TLR7 (Table 1b) and on human TLR8 (Table 1b) were more than 9 µM and 0.032 µM, respectively.
Turning to `CCCN(CCCNC(=O)NC(C)(C)C)C(=O)C1=Cc2ccc(-c3cccc(S(=O)(=O)N4CC(CO)C4)c3)cc2N=C(N)C1` [Bz-11, 2-amino-N-[3-(tert-butylcarbamoylamino)propyl]-8-[3-[3-(hydroxymethyl)azetidin-1-yl]sulfonylphenyl]-N-propyl-3H-1-benzazepine-4-carboxamide], the EC50 turned out to be 7.84 µM on human TLR7 (Table 1a) and 1.39 µM at human TLR8 (Table 1a).
`CCCN(CCCN)C(=O)C1=Cc2ccc(-c3cccc(S(=O)(=O)N4CC(CO)C4)c3)cc2N=C(N)C1` [Bz-17, 2-amino-N-(3-aminopropyl)-8-[3-[3-(hydroxymethyl)azetidin-1-yl]sulfonylphenyl]-N-propyl-3H-1-benzazepine-4-carboxamide]: the EC50 at human TLR7 (Table 1b) and at human TLR8 (Table 1b) was more than 9 µM in each case.
Consider `CCCN(CCCNC(=O)OC(C)(C)C)C(=O)C1=Cc2ccc(C(=O)Nc3ccc(N4CCC(C(=O)NCCNC(C)=O)CC4)nc3)cc2N=C(N)C1` [Bz-16, tert-butyl (3-(8-((6-(4-((2-acetamidoethyl)carbamoyl)piperidin-1-yl)pyridin-3-yl)carbamoyl)-2-amino-N-propyl-3H-benzo[b]azepine-4-carboxamido)propyl)carbamate], for which the EC50 at human TLR7 (Table 1a) was more than 9 µM; at human TLR8 (Table 1a) it was 1.05 µM.
As to `CCCN(CCCCN)C(=O)C1=Cc2ccc(-c3cccc(S(=O)(=O)N4CC(CO)C4)c3)cc2N=C(N)C1` [Bz-24, 2-amino-N-(4-aminobutyl)-8-[3-[3-(hydroxymethyl)azetidin-1-yl]sulfonylphenyl]-N-propyl-3H-1-benzazepine-4-carboxamide], the half-maximal effective concentration (EC50) on human TLR7 (Table 1b) and on human TLR8 (Table 1b) was more than 9 µM throughout.
Regarding `CCCN(OCC(F)(F)F)C(=O)C1=Cc2ccc(-c3cccc(S(=O)(=O)N4CC(CO)C4)c3)cc2N=C(N)C1` [Bz-73], the figures for the EC50 at human TLR7 (Table 1c) and on human TLR8 (Table 1c) were 4.48 µM and 0.12 µM, respectively.
In the case of `CCCN(Cc1ccc(CN2CCNCC2)cc1)C(=O)C1=Cc2ccc(-c3cccc(S(=O)(=O)N4CC(CO)C4)c3)cc2N=C(N)C1` [Bz-49], the EC50 at human TLR7 (Table 1c) and on human TLR8 (Table 1c) was not below 9 µM each time.
For `CCCN(CCCNC(=O)CC(C)(C)C)C(=O)C1=Cc2ccc(-c3cccc(S(=O)(=O)N4CC(CO)C4)c3)cc2N=C(N)C1` [Bz-19, 2-amino-N-(3-(3,3-dimethylbutanamido)propyl)-8-(3-((3-(hydroxymethyl)azetidin-1-yl)sulfonyl)phenyl)-N-propyl-3H-benzo[b]azepine-4-carboxamide], the EC50 at human TLR7 (Table 1b) stood at 1.07 µM; on human TLR8 (Table 1b) it was 3.17 µM.
For `CCCN(CCCCCN)C(=O)C1=Cc2ccc(-c3cccc(S(=O)(=O)N4CC(CO)C4)c3)cc2N=C(N)C1` [Bz-20, 2-amino-N-(5-aminopentyl)-8-(3-((3-(hydroxymethyl)azetidin-1-yl)sulfonyl)phenyl)-N-propyl-3H-benzo[b]azepine-4-carboxamide] the same measures were more than 9 µM and more than 9 µM.
With `CCCN(CCCN(C)C(=O)OC(C)(C)C)C(=O)C1=Cc2ccc(-c3ccc(C(=O)N4CCCC4)cc3)cc2N=C(N)C1` [Bz-8], the EC50 on human TLR7 (Table 1a) is 3.37 µM; on human TLR8 (Table 1a) it was more than 9 µM.
In the same order, the values of `CCCN(CCC)C(=O)C1=Cc2c(CCCCN)cc(-c3cccc(S(=O)(=O)N4CC(CO)C4)c3)cc2N=C(N)C1` [Bz-14, 2-Amino-6-(4-aminobutyl)-8-(3-((3-(hydroxymethyl)azetidin-1-yl)sulfonyl)phenyl)-N,N-dipropyl-3H-benzo[b]azepine-4-carboxamide] are more than 9 µM and 1.7 µM.
Consider `CCCN(CCC)C(=O)C1=Cc2ccc(-c3cc(C(F)(F)F)cc(S(=O)(=O)N4CC(CN(C)C)C4)c3)cc2N=C(N)C1` [Bz-39], for which the values for the EC50 on human TLR7 (Table 1c) and on human TLR8 (Table 1c) were 0.042 µM and 0.728 µM, respectively.
Consider `CCCN(CCCCCNC(=O)OC(C)(C)C)C(=O)C1=Cc2ccc(-c3cccc(S(=O)(=O)N4CC(CO)C4)c3)cc2N=C(N)C1` [Bz-9, tert-butyl N-[5-[[2-amino-8-[3-[3-(hydroxymethyl)azetidin-1-yl]sulfonylphenyl]-3H-1-benzazepine-4-carbonyl]-propyl-amino]pentyl]carbamate], for which the results for the EC50 at human TLR7 (Table 1a) and on human TLR8 (Table 1a) were 8.65 µM and 0.629 µM, respectively.

As usually defined, the EC50 is the concentration that produces a half-maximal response.
